In patent publication EP0334369B1, “Antiarteriosclerotic agent” (DAIICHI PHARMACEUTICAL CO., LTD., priority 1988, dated 1989) one finds DT data, which are given here for one compound.

Several values for one entry are separate records, joined by “and”; a condition that tells them apart may be missing. Equal values may be shown once. Where a name gives a salt, the structure may show the parent alone.

This experiment relates to Vascular smooth muscle cells (VSMC). Kind of experiment: Determination of DT (time required for doubling the number of cells) of vascular smooth muscle culture cells. The format is cell-based. To be noted: Treated Group; VSMC from aorta of SHR, 48-hour cultivation with Compound A; concentration not given; P < 0.02 vs. control group by Student's t-test; hydrate. The protocol:
Effects on Proliferation of Vascular Smooth Muscle Culture Cells Vascular smooth muscle cells (hereinafter referred to as VSMC) were separated from the aorta of seven 7-week-old male SHR and cultured according to the explant method [cf. Ross, R.J. Cell Biol., Vol. 50, 172 (1971)]. Culture cells of passage Nos. 4 to 10 were used for testing. The proliferation ability of VSMC was evaluated in terms of time required for doubling the number of the cells (hereinafter referred to as DT) and ³H-TU according to the following test methods. 1) Determination of DT: VSMC (about 5 x 10⁴ cells) were cultured on a plate for 24 hours. Compound A was added to the culture, and cultivation was continued for an additional period of 48 hours. The number of cells before the addition of Compound A and after the 48-hour cultivation were counted by means of a light microscope, and DT was obtained therefrom by the equation: [formula] wherein t₁ is the time at which the number of cells before addition of Compound A is counted; t₂ is the time at which the number of cells after addition of Compound A is counted; N₁ is the number of cells at t₁; and N₂ is the number of cells at t₂.

`O=C(O)c1ccc2c(c1)CCC(Cn1ccnc1)C2` (stereo not shown) [Compound A, 6-(1-Imidazolylmethyl)-5,6,7,8-tetrahydro-2-naphthalenecarboxylic acid hydrochloride 1/2 hydrate]: the DT is 26.16 h and 27.81 h and 26.59 h and 28.94 h and 21.66 h and 24.41 h.
